Reference: patent US20230000813A1, “COMPOUND FOR THE TREATMENT OF BOVINE OR SWINE RESPIRATORY DISEASE” (Intervet Inc., priority 2016, published 2023)
Where “and” joins values, the source holds several entries; their conditions need not be identical. Equal entries are not always repeated.

How the values were obtained:
M. haemolytica = assay: Mannheimia haemolytica cattle lung infection model, efficacy (Example 10); type: in vivo, cattle calves; settings: 3 calves, 10 mg/kg
Method: Unless otherwise described the study was conducted as described in Clinical Example 8
(§1) Calves were infected via intratracheal instillation of appr. 300 mL of M. haemolytica PBS suspension containing approximately 4×10^9 CFU M. haemolytica in late log phase on Day 0.
One hour later three animals each were treated with 10 mg/kg of Compound 231(referred to as C. 231) (80 mg/mL in 10% Poloxamer 188), or 10 mg/kg or 5 mg/kg Compound 329 (referred to as C. 329) (150 mg/mL in 35% Cavitron).
(§2) The following clinical findings were recorded: The general behavior scores of the animals before (DO am) and after infection with M. haemolytica in the different treated and control groups are indicated in FIG. 8-1: 0=normal; 1=slightly depressive, 2=moderately depressive, 3=highly depressive, 4=recumbency.
The following pathomorphological findings after section on Day 2 were recorded: After measuring the body weight and the lung weight the Lung body mass ratio was calculated as shown in FIG. 8-2. A healthy animal has a lung body mass ration around 1.7 or lower. The area percentage of lung consolidations compared to the total lung tissue and the lung score determined that is a combined score of such percentage of lung consoldiations and the grade. For the “grade” the degree of lung consolidation score was graded from 0 to 3 for each of eight lung lobes: 0 no visible changes, 1 low graded colour changes or induration, 2 medium graded induration, 3 high graded induration, hepatisation, necrosis.
The geometrical means (CFU/g tissue) of bacteriological re-isolations of Mannheimia haemolytica from lung tissue are illustrated in FIG. 8-4.

[1] = tested on: M. haemolytica M7/2, serotype A:1, ID 6357; assay: Mannheimia haemolytica cattle lung infection model, efficacy (Example 8); type: in vivo, Holstein black pied cattle calves; parameters: key to General behavior, score: 0 = normal; 1 = slightly depressive; 2 = moderately depressive; 3 = highly depressive; 4 = recumbency; key to Re-isolation of bacteria, Left Bronchial swab / Re-isolation of bacteria, Right Bronchial swab: − no bacterial growth; + low; ++ medium; +++ high amount of bacterial growth; settings: for Food consumption, cumulated for all animals in the group: 3 calves; for Lung score (including grade and percent Lung consolidation): grade of consolidation 0 to 3
Method: 15 male Holstein black pied cattle calves of ca. 4 months age were randomly assigned to the study groups ensuring an equal distribution of body weight. The animal weight was approximately 98-133.5 kg on D-1.
Calves were infected on Day 0 via intratracheal instillation of approximately 300 mL of a M. haemolytica PBS suspension containing approximately 3×10^9 CFU M. haemolytica in late log phase.
Three animals each were treated one hour after infection by subcutaneous (SC) administration of Compound 329 in an aqueous 30% (w/v) Captisol® solution for injection at a dose of 10 mg/kg BW.
The respective dose volume was injected on the sides of the thoracic wall. Injection volumes exceeding 10 mL were divided into one portion of 10 mL administered to the left side and the remaining rest administered at different injection sites on the other side. Animals in one control group were treated with a commercially available Enrofloxacin solution (Baytril ® 10%, Bayer Animal Health) at the recommended dose of 10 mg/kg BW. The second control group was treated with the galenic diluent (30% (w/v) Captisol®, dissolved in water) as placebo.
Food consumption was measured. Single individual blood samples were collected from the 12 animals at the following time points: D-1 (predose), 30 minutes, 2, 4, 6, 24 h and at D2 (ca. 45 h) after administration. After the day 2 blood sampling, the infected cattle were slaughtered. The lungs were weighted. Lung states and lung scores were observed morphologically.
At necropsy from animals treated with test items or the positive control, samples of epithelial lining fluid (ELF), lung tissue, and additionally tissue of liver and kidney were collected. From each lung two bacteriological swaps were taken from the left and right bronchus.
From each lung two tissue samples were collected by clipping from at least two locations, one from morphologically unchanged tissue, one from the edge of pathomorphologically changed areas.

M. haemolytica M7/2 = assay: Mannheimia haemolytica cattle lung infection model, efficacy (Example 9); type: in vivo, cattle calves; settings: 3 calves, SC 10 mg/kg BW
Method: Unless otherwise described the study was conducted as described in Example 8.
as §1
as §2, with “7-1: 0 =normal;” for “8-1: 0=normal;”, “[…] recumbency.” for “4=recumbency.”
The following pathomorphological findings after section on Day 2 were recorded: After measuring the body weight and the lung weight the Lung body mass ratio was calculated as shown in FIG. 7-2. A healthy animal has a lung body mass ration around 1.7 or lower. The area percentage of lung consolidations compared to the total lung tissue and the lung score determined that is a combined score of such percentage of lung consoldiations and the grade. For the “grade” the degree of lung consolidation score was graded from 0 to 3 for each of eight lung lobes: 0 no visible changes, 1 low graded colour changes or induration, 2 medium graded induration, 3 high graded induration, hepatisation, necrosis.
The geometrical means (CFU/g tissue) of bacteriological re-isolations of Mannheimia haemolytica from lung tissue are illustrated in FIG. 7-4.

[2] = D 0 am, after infection and treatment
[3] = section on day 2, infected calves, SC 10 mg/kg, individual animals and mean, 10 mg/kg
[4] = section on day 2, infected calves, SC 10 mg/kg, individual animals and mean, 10 mg/kg, mean
[5] = section on day 2, infected calves, SC single 10 mg/kg, individual animals

Question: With `CCN1CCN(c2cc3c(cc2F)c(=O)c(C(=O)O)cn3C2CC2)CC1` [Enrofloxacin, reference compound] as the molecule, how does the “Food consumption, cumulated for all animals in the group” value (from here on “Food consumption, cumulated”) (M. haemolytica; [2]) read?
Answer: The value was 1667 g.

Question: And the “Food consumption, cumulated” value (M. haemolytica; D 0 pm)?
Answer: The value was 4800 g.

Question: And the “Food consumption, cumulated” value (M. haemolytica; D +1 am)?
Answer: Its value is 4800 g.

Question: What about the “Food consumption, cumulated” value (M. haemolytica; D +1 pm) of the same molecule?
Answer: Its value is 4800 g.

Question: What about the “Food consumption, cumulated” value (M. haemolytica; D −1 (before infection)) of the same molecule?
Answer: Its value is 4800 g.

Question: And the “General behavior, score” value ([1]; D 0 am (before infection), calves, SC 10 mg/kg, individual animals and mean, 10 mg/kg)?
Answer: Its value is 0.

Question: And the “General behavior, score” value ([1]; D 0 am (before infection), calves, SC 10 mg/kg, individual animals and mean, 10 mg/kg, mean)?
Answer: The value was 0.0 score.

Question: And the “Food consumption, cumulated” value ([1]; D 0 am, after infection and treatment, SC 10 mg/kg)?
Answer: The value was 660 g.

Question: What about the “Food consumption, cumulated” value ([1]; D 0 pm, SC 10 mg/kg) of the same molecule?
Answer: Its value is 4800 g.

Question: What about the “General behavior, score” value ([1]; D 0 pm, calves infected with M. haemolytica, SC 10 mg/kg 1 h after infection, individual animals and mean, 10 mg/kg) of the same molecule?
Answer: Its value is 0.

Question: What about the “General behavior, score” value ([1]; D 0 pm, calves infected with M. haemolytica, SC 10 mg/kg 1 h after infection, individual animals and mean, 10 mg/kg, mean) of the same molecule?
Answer: Its value is 0.0 score.

Question: What about the “General behavior, score” value ([1]; D 1 am, calves infected with M. haemolytica, SC 10 mg/kg 1 h after infection, individual animals and mean, 10 mg/kg) of the same molecule?
Answer: Its value is 0.

Question: And the “General behavior, score” value ([1]; D 1 am, calves infected with M. haemolytica, SC 10 mg/kg 1 h after infection, individual animals and mean, 10 mg/kg, mean)?
Answer: The value was 0.0 score.

Question: And the “General behavior, score” value ([1]; D 1 pm, calves infected with M. haemolytica, SC 10 mg/kg 1 h after infection, individual animals and mean, 10 mg/kg)?
Answer: The value was 0.

Question: What about the “General behavior, score” value ([1]; D 1 pm, calves infected with M. haemolytica, SC 10 mg/kg 1 h after infection, individual animals and mean, 10 mg/kg, mean) of the same molecule?
Answer: Its value is 0.0 score.

Question: What about the “General behavior, score” value ([1]; D 2 am, calves infected with M. haemolytica, SC 10 mg/kg 1 h after infection, individual animals and mean, 10 mg/kg) of the same molecule?
Answer: Its value is 0.

Question: What about the “General behavior, score” value ([1]; D 2 am, calves infected with M. haemolytica, SC 10 mg/kg 1 h after infection, individual animals and mean, 10 mg/kg, mean) of the same molecule?
Answer: The value was 0.0 score.

Question: And the “Food consumption, cumulated” value ([1]; D +1 am, SC 10 mg/kg)?
Answer: The value was 4800 g.

Question: And the “Food consumption, cumulated” value ([1]; D +1 pm, SC 10 mg/kg)?
Answer: Its value is 4800 g.

Question: And the “Food consumption, cumulated” value ([1]; D −1 (before infection), SC 10 mg/kg)?
Answer: Its value is 4800 g.

Question: What about the mean bacterial re-isolation ([1]; infected calves, SC 10 mg/kg, in words) of the same molecule?
Answer: Its mean bacterial re-isolation is “Very low”.

Question: And the “Lung score (including grade and percent Lung consolidation)” value [1, 3]?
Answer: Its value is 21.2 and 16.9 and 20.4.

Question: What about the “Lung score (including grade and percent Lung consolidation)” value [1, 4] of the same molecule?
Answer: Its value is 19.5.

Question: And the Lung consolidations [1, 3]?
Answer: The Lung consolidations was 13.0% and 10.8% and 15.3%.

Question: What about the Lung weight [1, 3] of the same molecule?
Answer: The Lung weight was 1334 g and 1765 g and 1429 g.

Question: And the Lung/body weight ratio [1, 3]?
Answer: The Lung/body weight ratio was ~1.3% and 1.31% and 1.34% and 1.21% and 1.29%.

Question: And the Lung consolidations [1, 4]?
Answer: The Lung consolidations was 13.0%.

Question: What about the Lung weight [1, 4] of the same molecule?
Answer: Its Lung weight is 1509 g.

Question: What about the “Re-isolation of bacteria, Left Bronchial swab” value [1, 5] of the same molecule?
Answer: The value was “−”.

Question: And the “Re-isolation of bacteria, Right Bronchial swab” value [1, 5]?
Answer: The value was “−”.

Question: What about the “Food consumption, cumulated” value (M. haemolytica M7/2; [2]) of the same molecule?
Answer: The value was 4027 g.

Question: What about the “Food consumption, cumulated” value (M. haemolytica M7/2; D 0 pm) of the same molecule?
Answer: Its value is 4800 g.

Question: And the “Food consumption, cumulated” value (M. haemolytica M7/2; D +1 am)?
Answer: The value was 4737 g.

Question: And the “Food consumption, cumulated” value (M. haemolytica M7/2; D +1 pm)?
Answer: The value was 4800 g.

Question: And the “Food consumption, cumulated” value (M. haemolytica M7/2; D −1 (before infection))?
Answer: The value was 4800 g.
